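Five compound concentrations were applied to cells in 96-well plates for 48 hours; endpoints were derived by simple linear interpolation of the resulting dose-response curve. Here, GI50 denotes the concentration required for 50% inhibition of growth. TGI denotes the concentration required for complete inhibition of growth.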
Key:
Test in all cases: NCI anticancer screen, dose series, 48 h
RXF 393 renal = test system: RXF 393 renal
SR leukemia = test system: SR leukemia
TK-10 renal = test system: TK-10 renal
MOLT-4 leukemia = test system: MOLT-4 leukemia
OVCAR-4 ovarian = test system: OVCAR-4 ovarian
HOP-92 NSCLC = test system: HOP-92 NSCLC
CAKI-1 renal = test system: CAKI-1 renal
NCI-H460 lung = test system: NCI-H460 lung
CCRF-CEM leukemia = test system: CCRF-CEM leukemia
DU-145 prostate = test system: DU-145 prostate

Compound	GI50 (RXF 393 renal)	TGI (RXF 393 renal)	GI50 (SR leukemia)	TGI (SR leukemia)	GI50 (TK-10 renal)	TGI (TK-10 renal)	GI50 (MOLT-4 leukemia)	TGI (MOLT-4 leukemia)	GI50 (OVCAR-4 ovarian)	TGI (OVCAR-4 ovarian)	GI50 (HOP-92 NSCLC)	TGI (HOP-92 NSCLC)	GI50 (CAKI-1 renal)	TGI (CAKI-1 renal)	GI50 (NCI-H460 lung)	TGI (NCI-H460 lung)	GI50 (CCRF-CEM leukemia)	TGI (CCRF-CEM leukemia)	GI50 (DU-145 prostate)	TGI (DU-145 prostate)
O=C(Nc1ccc(Br)cc1F)c1cc(Cl)ccc1O	852 nM	3.99 µM	541 nM	> 30.1 µM	3.5 µM	10.2 µM	1760 nM	5.11 µM	0.509 µM	> 100 µM	0.174 µM	0.557 µM	0.319 µM	2.85 µM	0.487 µM	> 66.5 µM	2080 nM	7.63 µM	0.899 µM	> 100 µM
O=C(/C=C/c1ccc[nH]1)c1ccc(-n2ccc(C(F)(F)F)n2)cc1	3610 nM	> 31.2 µM	9150 nM	> 100 µM	> 100 µM	> 100 µM	13800 nM	> 100 µM	99.1 µM	> 100 µM	> 100 µM	> 100 µM	> 31.6 µM	> 100 µM	84.2 µM	> 100 µM	1060 nM	> 100 µM	> 100 µM	> 100 µM
CCOC(=O)Nc1cc2c(c(N)n1)N=C(c1ccccc1)CO2	275 nM	32.1 µM	35 nM	10.1 µM	0.704 µM	19.3 µM	105 nM	> 40.7 µM	2.46 µM	36.4 µM	7.13 µM	29.1 µM	0.102 µM	7.62 µM	0.0659 µM	5.26 µM	65.3 nM	4.42 µM	0.194 µM	1.44 µM
C=CCC1(c2ccc(OC)cc2)C=CC(=O)CC1 (centres undefined)	–	> 100 µM	–	> 100 µM	–	> 100 µM	–	> 100 µM	–	> 100 µM	–	> 100 µM	–	> 100 µM	–	> 100 µM	–	> 100 µM	–	> 100 µM
O=C(Nc1cccc(C(F)(F)F)c1)c1ccc(NC2=C(Cl)C(=O)N(Cc3ccc(Cl)cc3Cl)C2=O)cc1	4760 nM	28.3 µM	1830 nM	3.93 µM	15.6 µM	35.7 µM	1310 nM	6.8 µM	11.1 µM	42.6 µM	4.71 µM	16.2 µM	16.8 µM	34.6 µM	8.38 µM	31 µM	2270 nM	5.46 µM	11.8 µM	30.2 µM
NC(N)=N/N=C/c1c(Cl)cccc1Cl	15500 nM	35.8 µM	22200 nM	56.3 µM	21.9 µM	66.3 µM	28200 nM	74.5 µM	25.3 µM	> 100 µM	6.66 µM	32.7 µM	23 µM	95.3 µM	15.6 µM	32.5 µM	28500 nM	> 100 µM	23.1 µM	> 100 µM
COC(=O)c1c2c(c(C)[n+]([O-])c1C)C(=O)C=C(NCc1ccc(F)cc1)C2=O	1430 nM	2.93 µM	639 nM	9.92 µM	3.3 µM	9.55 µM	858 nM	3.09 µM	0.254 µM	1.1 µM	1.72 µM	3.83 µM	0.527 µM	2.76 µM	0.493 µM	2 µM	500 nM	6 µM	1.15 µM	2.4 µM
O=C(NC[C@H](O)CN1CCc2ccccc2C1)c1cc(NC2COC2)ncn1	2310 nM	12.9 µM	9290 nM	50.9 µM	22 µM	88.9 µM	15100 nM	49.3 µM	16 µM	> 100 µM	18.1 µM	> 100 µM	26.4 µM	> 100 µM	3.98 µM	21.1 µM	26900 nM	> 100 µM	18.3 µM	> 100 µM
Cc1nc(Nc2cccnc2)sc1C(=O)/C=C/c1ccc(F)cc1	3010 nM	8.31 µM	1690 nM	> 100 µM	2.98 µM	> 100 µM	3200 nM	> 100 µM	4.29 µM	> 100 µM	3.1 µM	9.98 µM	3.39 µM	13.6 µM	2.68 µM	6.9 µM	1400 nM	24.7 µM	3.48 µM	14.8 µM
C[C@@H]1C[C@@H]([C@@H](CC2CC(=O)NC(=O)C2)OC(=O)CC(=O)c2ccccc2)C(=O)[C@@H](C)C1	496 nM	25.1 µM	2010 nM	> 100 µM	0.306 µM	> 24.3 µM	494 nM	> 100 µM	1.91 µM	> 100 µM	0.324 µM	> 24.9 µM	0.252 µM	–	0.461 µM	> 43.9 µM	466 nM	> 85.5 µM	0.769 µM	> 33.3 µM
Cc1nnc(Nc2ccc(NC(=O)Nc3ccc(Cl)cc3)cc2)c2ccccc12	2170 nM	4.13 µM	2560 nM	9.55 µM	3.19 µM	9.42 µM	2360 nM	6 µM	2.79 µM	8.36 µM	2.56 µM	6.06 µM	3.49 µM	12.8 µM	3.46 µM	11.7 µM	2380 nM	5.99 µM	4.77 µM	19.5 µM
O=C(Cc1ccc(F)c(Cl)c1)Nc1cc(C2(C(F)(F)F)CC2)nn1CC1CCCCC1	2370 nM	10.1 µM	3730 nM	11.4 µM	4.78 µM	> 15 µM	3370 nM	9.57 µM	3.27 µM	> 15 µM	2.69 µM	10.7 µM	2.93 µM	8.79 µM	3.28 µM	8.41 µM	4720 nM	> 15 µM	5.39 µM	> 15 µM

Source: PubChem BioAssay (NCI)
